Data from ChEMBL document CHEMBL5154835, “Design, synthesis and biological evaluation of sulfonamides inhibitors of XPO1 displaying activity against multiple myeloma cells” (Eur J Med Chem, 2022).

Tested on: MM1.S
Experiment: Antiproliferative activity against human MM1.S cells assessed as inhibition of cell growth incubated for 4 hrs by CCK-8 assay
Assay type: functional, cell-based

IC50 [nM]	Compound
2070	Cc1cn(/C=C(/C(N)=O)c2cncnc2)nc1-c1cc(C(F)(F)F)cc(C(F)(F)F)c1
713	NC(=O)/C(=C/n1cc(F)c(-c2cc(C(F)(F)F)cc(C(F)(F)F)c2)n1)c1cncnc1
8960	CN(C)C(=O)/C(=C/n1cnc(-c2cc(C(F)(F)F)cc(C(F)(F)F)c2)n1)c1ccc(NS(C)(=O)=O)cc1
1190	N#Cc1cn(/C=C(/C(N)=O)c2cncnc2)nc1-c1cc(C(F)(F)F)cc(C(F)(F)F)c1
833	CS(=O)(=O)Nc1cc(C#N)cc(/C(=C\n2cnc(-c3cc(C(F)(F)F)cc(C(F)(F)F)c3)n2)C(N)=O)c1
363	NC(=O)/C(=C/n1cnc(-c2cc(C(F)(F)F)cc(C(F)(F)F)c2)n1)c1ccc(C(F)(F)F)nc1
2240	NC(=O)/C(=C/n1cc(Cl)c(-c2cc(C(F)(F)F)cc(C(F)(F)F)c2)n1)c1cncnc1
271	CS(=O)(=O)Nc1cccc(/C(=C\n2cnc(-c3cc(C(F)(F)F)cc(C(F)(F)F)c3)n2)C(N)=O)c1
3470	COc1c(F)cc(/C(=C\n2cnc(-c3cc(C(F)(F)F)cc(C(F)(F)F)c3)n2)C(N)=O)cc1F
146	CCOC(=O)/C(=C/n1cnc(-c2cc(C(F)(F)F)cc(C(F)(F)F)c2)n1)c1ccc(NS(C)(=O)=O)cc1
845	CS(=O)(=O)Nc1ccc(/C(=C\n2cnc(-c3cc(C(F)(F)F)cc(C(F)(F)F)c3)n2)C(N)=O)cc1C(F)(F)F
2750	Cc1ccc(S(=O)(=O)Nc2ccc(/C(=C\n3cnc(-c4cc(C(F)(F)F)cc(C(F)(F)F)c4)n3)C(N)=O)cc2)cc1
667	NC(=O)/C(=C/n1cnc(-c2cc(C(F)(F)F)cc(C(F)(F)F)c2)n1)c1ccc(F)nc1F
